Measurements taken from PubChem BioAssay (NCI).
Several values for one entry are separate records, joined by “and”; a condition that tells them apart may be missing. Identical values can stand only once.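 1) Cells in 96-well plates. 2) Compound, 48 h, 5 concentrations. 3) Linear interpolation between surrounding doses. 4) Unreached endpoint = highest concentration. Abbreviation: GI50, concentration required for 50% inhibition of growth. TGI: concentration producing complete growth inhibition.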

Columns and labels:
Test in all cases: DTP human tumour cell line panel, 48 h
[1] = test system: UO-31 renal
[2] = test system: MOLT-4 leukemia
[3] = test system: DMS 273 small cell lung
[4] = test system: SR leukemia
[5] = test system: UACC-257 melanoma
[6] = test system: A549 NSCLC
[7] = test system: KM12 colon
[8] = test system: RXF-631 renal
[9] = test system: HT29 colon
[10] = test system: EKVX NSCLC
[11] = test system: SK-MEL-28 melanoma
[12] = test system: RPMI-8226 leukemia
[13] = test system: NCI-H23 lung
[14] = test system: NCI-H460 lung
[15] = test system: OVCAR-4 ovarian
[16] = test system: A498 renal
[17] = test system: CAKI-1 renal
[18] = test system: NCI-H522 lung
[19] = test system: IGROV1 ovarian
[20] = test system: OVCAR-8 ovarian
[21] = test system: UACC-62 melanoma
[22] = test system: SK-OV-3 ovarian
[23] = test system: HCT-116 colon
[24] = test system: M14 melanoma
[25] = test system: HCT-15 colon
[26] = test system: M19-MEL melanoma
[27] = test system: HOP-18 NSCLC
[28] = test system: DLD-1 colon
[29] = test system: U251 CNS
[30] = test system: SN12C renal
[31] = test system: SF-268 CNS
[32] = test system: LXFL 529 NSCLC
[33] = test system: SK-MEL-5 melanoma
[34] = test system: ACHN renal
[35] = test system: LOX IMVI melanoma
[36] = test system: OVCAR-3 ovarian
[37] = test system: TK-10 renal
[38] = test system: HL-60(TB) leukemia
[39] = test system: RXF 393 renal
[40] = test system: NCI-H226 lung
[41] = test system: KM20L2 colon
[42] = test system: HCC-2998 colon
[43] = test system: SK-MEL-2 melanoma
[44] = test system: SF-295 CNS
[45] = test system: SNB-75 CNS
[46] = test system: K-562 leukemia
[47] = test system: SF-539 CNS
[48] = test system: DMS 114 small cell lung
[49] = test system: SNB-19 CNS
[50] = test system: HOP-62 NSCLC
[51] = test system: XF 498 CNS
[52] = test system: CCRF-CEM leukemia
[53] = test system: HOP-92 NSCLC
[54] = test system: MALME-3M melanoma
[55] = test system: SNB-78 CNS
[56] = test system: SW-620 colon
[57] = test system: 786-0 renal
[58] = test system: OVCAR-5 ovarian
[59] = test system: COLO 205 colon

SMILES: Cc1ccc(SSCC(O)C(O)CSSc2ccc(C)cc2)cc1 (stereo not drawn)
- TGI [1]: 17.6 µM and 15.3 µM
- GI50 [2]: 1.43 µM and 3.12 µM
- TGI [2]: 5.96 µM and 20.9 µM
- GI50 [3]: 4.26 µM and 10.5 µM
- TGI [3]: 14.9 µM and 22.5 µM
- TGI [4]: 15.7 µM and 23.7 µM
- TGI [5]: 30.5 µM and 28.1 µM
- TGI [6]: 35.9 µM and 26.4 µM
- TGI [7]: 21.2 µM and 23.8 µM
- GI50 [8]: 10.1 µM and 3.4 µM
- TGI [8]: 22.2 µM and 15.7 µM
- TGI [9]: 27.8 µM and 49.8 µM
- TGI [10]: 36 µM and 36.1 µM
- TGI [11]: 26.8 µM and 28.6 µM
- TGI [12]: 12.8 µM and 22 µM
- TGI [13]: 20.9 µM and 24.1 µM
- TGI [14]: 32.2 µM and 36.3 µM
- TGI [15]: 26.8 µM and 28.5 µM
- TGI [16]: 18 µM
- GI50 [17]: 4.04 µM and 13.2 µM
- TGI [17]: 15.4 µM and 27 µM
- TGI [18]: 3.38 µM and 3.68 µM
- TGI [19]: 5.87 µM and 6.81 µM
- GI50 [20]: 4.21 µM and 17.4 µM
- TGI [20]: 14.6 µM and 31.2 µM
- GI50 [21]: 4.81 µM and 15.8 µM
- TGI [21]: 17.2 µM and 31 µM
- GI50 [22]: 10.8 µM and 22.8 µM
- TGI [22]: 23.7 µM and 43.6 µM
- TGI [23]: 20.1 µM and 24.5 µM
- TGI [24]: 18.9 µM and 21.6 µM
- TGI [25]: 28.2 µM and 27.7 µM
- TGI [26]: 25.5 µM and 36.9 µM
- GI50 [27]: 13.5 µM and 27.2 µM
- TGI [27]: 31.9 µM and 53.6 µM
- TGI [28]: 32.1 µM and 30 µM
- TGI [29]: 10.9 µM and 12 µM
- GI50 [30]: 4.74 µM and 10.5 µM
- TGI [30]: 17.3 µM and 23.2 µM
- GI50 [31]: 4.6 µM and 10.4 µM
- TGI [31]: 19.1 µM and 29.2 µM
- TGI [32]: 19 µM and 22.9 µM
- TGI [33]: 25.6 µM and 19.9 µM
- TGI [34]: 23.6 µM and 29.3 µM
- TGI [35]: 2.78 µM and 4.21 µM
- GI50 [36]: 6.31 µM and 13.9 µM
- TGI [36]: 18.4 µM and 27 µM
- TGI [37]: 35.2 µM and 27.7 µM
- GI50 [38]: 1.01 µM and 4.6 µM
- TGI [38]: 3.1 µM and 25.6 µM
- TGI [39]: 16.9 µM and 16.1 µM
- TGI [40]: 30.4 µM and 29 µM
- TGI [41]: 24.2 µM and 26.6 µM
- TGI [42]: 28.3 µM and 28.9 µM
- TGI [43]: 20.5 µM
- GI50 [44]: 4.31 µM and 12.6 µM
- TGI [44]: 16.4 µM and 26.1 µM
- GI50 [45]: 5.97 µM and 16.2 µM
- TGI [45]: 22.2 µM and 31.8 µM
- GI50 [46]: 4.84 µM and 15.3 µM
- TGI [46]: 28.3 µM and 46.8 µM
- TGI [47]: 8.17 µM and 14.3 µM
- GI50 [48]: 2.07 µM and 7.05 µM
- TGI [48]: 5.14 µM and 20.4 µM
- TGI [49]: 31.5 µM and 31.7 µM
- GI50 [50]: 12.5 µM and 3.81 µM
- TGI [50]: 26.6 µM and 9.98 µM
- TGI [51]: 26.7 µM and 31.4 µM
- TGI [52]: 4.08 µM
- TGI [53]: 26 µM and 31.4 µM
- TGI [54]: 36 µM and 30.7 µM
- TGI [55]: 52.6 µM
- TGI [56]: 20.2 µM and 27.2 µM
- GI50 [57]: 5.15 µM and 12.4 µM
- TGI [57]: 17.5 µM and 24.9 µM
- TGI [58]: 30.2 µM and 38.4 µM
- GI50 [59]: 1.99 µM and 14.2 µM
- TGI [59]: 3.75 µM and 27.3 µM

SMILES: COc1ccc(Br)c(CN2CCc3ccccc32)c1OS(=O)(=O)c1ccc(C)cc1
- TGI [1]: > 100 µM
- TGI [2]: > 100 µM
- TGI [4]: > 100 µM
- TGI [5]: > 100 µM
- TGI [6]: > 100 µM
- TGI [7]: > 100 µM
- TGI [8]: > 100 µM
- TGI [10]: > 100 µM
- TGI [11]: > 100 µM
- TGI [12]: > 100 µM
- TGI [13]: 85.1 µM
- TGI [18]: 30.8 µM
- TGI [20]: > 100 µM
- TGI [24]: > 100 µM
- TGI [25]: > 100 µM
- TGI [26]: > 100 µM
- TGI [27]: > 100 µM
- TGI [28]: > 100 µM
- TGI [30]: > 100 µM
- TGI [31]: > 100 µM
- TGI [34]: > 100 µM
- TGI [36]: 75.9 µM
- TGI [38]: > 100 µM
- TGI [39]: 65.7 µM
- TGI [40]: > 100 µM
- TGI [42]: > 100 µM
- TGI [43]: > 100 µM
- TGI [44]: > 100 µM
- TGI [45]: 88.8 µM
- TGI [46]: > 100 µM
- TGI [47]: 57.8 µM
- TGI [48]: 53.5 µM
- TGI [49]: > 100 µM
- TGI [51]: 92 µM
- TGI [52]: > 100 µM
- TGI [53]: > 100 µM
- TGI [54]: > 100 µM
- TGI [55]: > 100 µM
- TGI [56]: > 100 µM
- TGI [57]: > 100 µM
- TGI [58]: > 100 µM
- TGI [59]: 33.8 µM

SMILES: CCCCCCC(=O)C/C(CCC(=O)N(Cc1ccccc1)Cc1ccccc1)=N\NC(N)=O
- TGI [1]: > 100 µM
- TGI [2]: > 100 µM
- TGI [3]: > 100 µM
- TGI [4]: > 100 µM
- TGI [5]: > 100 µM
- TGI [6]: > 100 µM
- TGI [7]: > 100 µM
- TGI [8]: > 100 µM
- TGI [9]: > 100 µM
- TGI [10]: > 100 µM
- TGI [11]: > 100 µM
- TGI [12]: > 100 µM
- TGI [13]: > 100 µM
- TGI [14]: > 100 µM
- TGI [15]: > 100 µM
- TGI [16]: > 100 µM
- TGI [17]: > 100 µM
- TGI [18]: > 100 µM
- TGI [19]: > 100 µM
- TGI [20]: > 100 µM
- TGI [21]: > 100 µM
- TGI [22]: > 100 µM
- TGI [23]: > 100 µM
- TGI [24]: > 100 µM
- TGI [25]: > 100 µM
- TGI [26]: > 100 µM
- TGI [27]: > 100 µM
- TGI [29]: > 100 µM
- TGI [30]: > 100 µM
- TGI [31]: > 100 µM
- TGI [32]: > 100 µM
- TGI [33]: > 100 µM
- TGI [34]: > 100 µM
- TGI [35]: > 100 µM
- TGI [36]: > 100 µM
- TGI [37]: > 100 µM
- TGI [38]: > 100 µM
- TGI [39]: > 100 µM
- TGI [40]: > 100 µM
- TGI [41]: > 100 µM
- TGI [42]: > 100 µM
- TGI [43]: > 100 µM
- TGI [44]: > 100 µM
- TGI [45]: > 100 µM
- TGI [46]: > 100 µM
- TGI [47]: > 100 µM
- TGI [48]: > 100 µM
- TGI [49]: > 100 µM
- TGI [50]: > 100 µM
- TGI [51]: > 100 µM
- TGI [52]: > 100 µM
- TGI [53]: > 100 µM
- TGI [54]: > 100 µM
- TGI [55]: > 100 µM
- TGI [56]: > 100 µM
- TGI [57]: > 100 µM
- TGI [58]: > 100 µM
- TGI [59]: > 100 µM
